According to US4698344A, “1-Heteroaryl-4-aryl-pyrazolin-5-ones for use as medicaments” (priority 1984, dated 1987):

Assays:
5-lipoxygenase = molecular target: T1, 5-lipoxygenase (Homo sapiens, UniProt P09917); experiment: Lipoxygenase activity (LTB4 synthesis) in human PMN leukocytes stimulated with A 23187; type: cell-based; conditions: read-out: Inhibition of LTB4 synthesis in human PMN's
T1 construct: endogenous in cells; host or cells: human polymorphonuclear leukocytes from heparinized whole blood
T1 sequence (P09917 1-674): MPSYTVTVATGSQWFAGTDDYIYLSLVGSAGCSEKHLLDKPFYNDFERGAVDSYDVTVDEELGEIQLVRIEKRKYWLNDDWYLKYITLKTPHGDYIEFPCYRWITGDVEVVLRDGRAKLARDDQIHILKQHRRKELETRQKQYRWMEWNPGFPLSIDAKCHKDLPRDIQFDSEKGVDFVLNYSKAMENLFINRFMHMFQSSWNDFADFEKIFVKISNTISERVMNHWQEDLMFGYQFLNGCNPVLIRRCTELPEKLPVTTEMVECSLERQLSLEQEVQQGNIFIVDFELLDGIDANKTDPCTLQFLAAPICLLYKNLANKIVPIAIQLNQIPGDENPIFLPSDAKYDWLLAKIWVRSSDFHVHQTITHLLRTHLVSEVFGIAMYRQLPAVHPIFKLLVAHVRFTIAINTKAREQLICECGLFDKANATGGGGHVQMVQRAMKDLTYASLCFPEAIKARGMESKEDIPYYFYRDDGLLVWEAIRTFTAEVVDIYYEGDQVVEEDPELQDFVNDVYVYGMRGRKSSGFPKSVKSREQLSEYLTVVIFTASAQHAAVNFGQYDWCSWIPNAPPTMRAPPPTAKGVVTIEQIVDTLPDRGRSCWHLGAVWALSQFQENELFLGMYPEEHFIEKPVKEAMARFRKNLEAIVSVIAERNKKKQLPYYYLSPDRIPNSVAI
Protocol: The polymorphonuclear leukocytes of humans metabolize arachidonic acid to give 5-hydroxy-5,8,11,14-eicosatetraenoic acid (5-HETE) and leukotriene B4 (5S, 12R-dihydroxy-6-cis, 8,10-trans-14ciseicosatetraenoic acid). Inhibition of the release of 5-HETE and leukotriene B4 from leukocytes is a measure of the lipoxygenase-inhibiting effect of the compounds according to the invention.
After 15 minutes, the lipoxygenase products were extracted from the acidified incubation medium and separated by means of HPLC.

cyclooxygenase = molecular target: T2, cyclooxygenase (Rattus norvegicus, UniProt Q63921); experiment: Cyclooxygenase activity in homogenates of RBL-1 cells; type: biochemical; conditions: concentration 0.5-1 μg/ml; negative = inhibition
T2 construct: homogenates of RBL-1 cells; endogenous in cells; host or cells: RBL-1 (rat basophilic leukaemia) cells, homogenate
T2 sequence (Q63921 27-602): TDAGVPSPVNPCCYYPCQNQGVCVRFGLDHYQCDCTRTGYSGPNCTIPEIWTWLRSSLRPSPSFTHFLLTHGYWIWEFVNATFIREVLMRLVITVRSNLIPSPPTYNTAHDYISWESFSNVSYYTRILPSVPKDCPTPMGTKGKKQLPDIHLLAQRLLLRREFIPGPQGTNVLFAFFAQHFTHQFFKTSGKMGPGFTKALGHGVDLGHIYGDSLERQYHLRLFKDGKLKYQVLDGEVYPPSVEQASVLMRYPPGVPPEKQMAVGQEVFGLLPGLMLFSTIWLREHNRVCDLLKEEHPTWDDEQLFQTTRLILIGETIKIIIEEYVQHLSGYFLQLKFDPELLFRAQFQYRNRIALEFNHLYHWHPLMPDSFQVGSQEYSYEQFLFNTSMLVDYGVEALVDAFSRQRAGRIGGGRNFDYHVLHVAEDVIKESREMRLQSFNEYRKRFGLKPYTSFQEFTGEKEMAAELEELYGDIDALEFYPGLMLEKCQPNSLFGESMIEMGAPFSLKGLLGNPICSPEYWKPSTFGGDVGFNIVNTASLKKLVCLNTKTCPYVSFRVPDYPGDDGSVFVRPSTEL
Description: (§1) Basophilic leukaemia cells from rats (RBL-1) synthesize both lipoxygenase and cyclooxygenase products from ^14 C-arachidonic acid with which they are supplied. […] The products formed were separated by thin layer chromatography and quantified in a scanner.

lipoxygenase = molecular target: T3, lipoxygenase (Rattus norvegicus, UniProt P12527); experiment: Lipoxygenase activity in homogenates of RBL-1 cells; type: biochemical; conditions: concentration 0.5-1 μg/ml; negative = inhibition
T3 construct: homogenates of RBL-1 cells; endogenous in cells; host or cells: RBL-1 (rat basophilic leukaemia) cells, homogenate
T3 sequence (P12527 1-673): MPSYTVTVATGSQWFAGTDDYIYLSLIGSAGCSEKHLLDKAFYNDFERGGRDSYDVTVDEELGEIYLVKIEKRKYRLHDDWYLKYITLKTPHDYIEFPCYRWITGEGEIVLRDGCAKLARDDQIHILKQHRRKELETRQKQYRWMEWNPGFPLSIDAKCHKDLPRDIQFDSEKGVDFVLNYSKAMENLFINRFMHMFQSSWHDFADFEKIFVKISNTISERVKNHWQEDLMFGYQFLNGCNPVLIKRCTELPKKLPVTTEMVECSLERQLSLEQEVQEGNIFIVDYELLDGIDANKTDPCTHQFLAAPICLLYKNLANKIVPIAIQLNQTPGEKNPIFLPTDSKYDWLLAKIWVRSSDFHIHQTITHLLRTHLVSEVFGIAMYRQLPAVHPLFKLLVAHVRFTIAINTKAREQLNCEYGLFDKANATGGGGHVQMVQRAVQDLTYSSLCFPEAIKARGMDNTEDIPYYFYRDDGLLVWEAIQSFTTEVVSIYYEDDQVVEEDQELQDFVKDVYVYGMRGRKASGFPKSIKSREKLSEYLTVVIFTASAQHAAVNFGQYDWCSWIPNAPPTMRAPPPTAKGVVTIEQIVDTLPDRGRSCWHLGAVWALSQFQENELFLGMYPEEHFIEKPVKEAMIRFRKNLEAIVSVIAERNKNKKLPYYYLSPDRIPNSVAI
Description: as §1

[1] = tested on: carrageenan-induced oedema of the rat paw; experiment: Carrageenan-induced oedema of the rat paw; type: in vivo
Protocol: The antiinflammatory action of the test substances following oral administration was determined with the aid of carrageenan-induced oedema of the rat paw.
The experiments were carried out with male rats, strain: Bor:WLSW (SPF-Cpb); weight 150 to 220 g. One hour before inducing the oedema (0.1 ml of carrageenan suspension/animal, subplantar injection), the substance to be tested was administered to the animals as a suspension in tragacanth with the aid of a stomach tube; as a control, a second group of animals was treated with tragacanth without the substance.
The paw volumes were measured by the method of F. Kemper and G. Ameln Z. exp.

[2] = tested on: release of leukotrienes (SRS-A); experiment: Passive peritoneal anaphylaxis (rats); type: in vivo, rat; conditions: 100 mg/kg perorally
Protocol: The effect of substances on the release of mediators, in particular the release of leukotrienes, is recorded with this in vivo method. […] Histamine is not released during this, so that the lipoxygenase-inhibiting action of test substances can be investigated selectively.

[3] = administered systemically (for example orally); cited from earlier work

Row | Compound | inhibition at 10 µg/mL (5-lipoxygenase) | Action on cyclooxygenase (CO): Effect (cyclooxygenase) | Action on lipoxygenase (LO): Effect (lipoxygenase) | ED50 ([1]; Rattus norvegicus, po, 5 h, read-out: ED50 of oedema inhibition) | % inhibition of the carrageenan oedema ([1]; oral, 2.5 mg/kg, rats, 5 hours after oedema provocation) | % inhibition, passive peritoneal anaphylaxis [2] | toxic side effects (in words) [3]
1 | O=c1c(-c2ccccc2)c[nH]n1-c1ccccn1 [Example 7, 1-pyrid-2-yl-4-phenyl-pyrazolin-5-one] | 92% | +28% | -66% | 9.1 mg/kg | 44% | 65% | 
2 | NC1=NN(c2cccc(C(F)(F)F)c2)CC1 [BW 755C, 3-amino-1-(3-trifluoromethylphenyl)-pyrazoline] |  |  |  |  |  |  | toxic side effects
